# Source: article PMC10003107, “Selectivity of Hydroxamate- and Difluoromethyloxadiazole-Based Inhibitors of Histone Deacetylase 6 In Vitro and in Cells” (International Journal of Molecular Sciences, 2023)
# Like-named read-outs stand apart in the source and are kept apart here.
# How the values were obtained:
# HDAC10 = molecular target: T1, HDAC10 (Homo sapiens, UniProt Q969S8); test: In vitro deacetylation assay, HDAC10 (fluorescein-labeled N8-acetylspermidine, RP-HPLC); assay type: biochemical
# T1 construct: HDAC10 1 – 667 Open Biosystems; Strep-FLAG-HALO (N); made in house; host or cells: HEK293/T17
# T1 sequence (Q969S8 1-667): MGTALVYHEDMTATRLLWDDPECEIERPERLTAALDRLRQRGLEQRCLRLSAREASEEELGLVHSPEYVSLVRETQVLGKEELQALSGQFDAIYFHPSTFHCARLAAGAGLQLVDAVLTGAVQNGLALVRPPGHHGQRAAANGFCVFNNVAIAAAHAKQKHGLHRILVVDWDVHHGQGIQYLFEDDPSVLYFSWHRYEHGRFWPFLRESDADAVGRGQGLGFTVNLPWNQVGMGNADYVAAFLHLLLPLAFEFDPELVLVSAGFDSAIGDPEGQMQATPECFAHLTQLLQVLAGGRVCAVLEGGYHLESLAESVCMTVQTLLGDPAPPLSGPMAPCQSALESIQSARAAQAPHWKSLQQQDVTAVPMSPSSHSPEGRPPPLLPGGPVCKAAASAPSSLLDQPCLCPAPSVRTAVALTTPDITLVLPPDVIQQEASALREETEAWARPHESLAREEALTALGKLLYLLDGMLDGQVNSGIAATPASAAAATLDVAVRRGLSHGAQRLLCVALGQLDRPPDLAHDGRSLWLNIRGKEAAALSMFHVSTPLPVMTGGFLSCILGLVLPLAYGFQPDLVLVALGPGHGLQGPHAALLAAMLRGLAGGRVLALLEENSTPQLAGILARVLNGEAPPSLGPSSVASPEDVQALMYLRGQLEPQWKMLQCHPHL
# MTT viability assay = assay type: cell-based; settings: human, RPMI-8226 lymphoblasts, RPMI-8226 cells, read-out: EC50 cytotoxicity (MTT viability)
# Procedure: (§1) RPMI-8226 lymphoblasts (ATTC #CCL-155) were used to assess the cytotoxicity of tested compounds. […] Dilution series of tested inhibitors were prepared as 10x stock solutions in PBS and 10 μL was added to cells and incubated under a 5% CO2 atmosphere at 37 °C, for 2 days. Following incubation, 10 μL of MTT reagent (3-(4,5-dimethylthiazol-2-yl)-2,5-diphenyltetrazolium bromide, 5 mg/mL in PBS, Sigma Aldrich) was added to each well and incubated for 90 min, 37 °C, 5% CO2. […]
# RPMI-8226 lymphoblasts = test: MTT viability assay; assay type: cell-based; settings: RPMI-8226 cells, 48 h; for EC50: read-out: EC50 cytotoxicity (MTT viability)
# Procedure: as §1
# tubulin acetylation = test: Tubulin acetylation in RPMI-8226 cells by quantitative Western blotting; assay type: cell-based
# histone H3 acetylation = test: Histone H3 (K9/K14) acetylation in RPMI-8226 cells by Western blotting; assay type: cell-based; settings: 6 h, Western blot
# HDAC1 [1] = molecular target: T2, HDAC1 (Homo sapiens, UniProt Q13547); test: In vitro deacetylation assay, HDAC1 (RHKK substrate); assay type: biochemical; settings: for IC50: purified human HDAC1, RHK[AcK]-AMC (RHKK) substrate
# T2 construct: HDAC1 1-482 Addgene; Strep-FLAG-HALO (N); made in house; host or cells: HEK293/T17
# T2 sequence (Q13547 whole entry): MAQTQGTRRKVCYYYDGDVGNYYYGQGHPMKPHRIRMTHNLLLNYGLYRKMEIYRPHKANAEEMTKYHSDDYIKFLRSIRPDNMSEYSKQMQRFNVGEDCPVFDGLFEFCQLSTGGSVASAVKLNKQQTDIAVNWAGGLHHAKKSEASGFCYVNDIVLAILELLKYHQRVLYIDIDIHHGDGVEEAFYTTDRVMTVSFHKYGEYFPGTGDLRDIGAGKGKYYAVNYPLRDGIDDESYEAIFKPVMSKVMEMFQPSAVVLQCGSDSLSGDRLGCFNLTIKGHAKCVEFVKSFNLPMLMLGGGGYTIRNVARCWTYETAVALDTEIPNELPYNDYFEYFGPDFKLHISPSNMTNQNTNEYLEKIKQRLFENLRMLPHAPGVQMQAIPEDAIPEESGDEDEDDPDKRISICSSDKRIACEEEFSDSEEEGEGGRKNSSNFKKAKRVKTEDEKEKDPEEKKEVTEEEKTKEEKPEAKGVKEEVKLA
# HDAC1 [2] = molecular target: T2, HDAC1; test: In vitro deacetylation assay, HDAC1 (GAK substrate); assay type: biochemical; settings: for IC50: purified human HDAC1, GAK substrate 10 µM
# HDAC1-nanoLuc = HDAC1-nanoLuc (Homo sapiens, UniProt Q13547); test: nanoBRET target engagement assay, HDAC1; assay type: cell-based; settings: HEK293T/17 cells stably expressing HDAC1-nanoLuc, 2 h
# Sequence of HDAC1-nanoLuc (Q13547 whole entry): as above
# HDAC6 = molecular target: T3, HDAC6 (Homo sapiens, UniProt Q9UBN7); test: In vitro deacetylation assay, HDAC6 (GAK substrate); assay type: biochemical; settings: purified human HDAC6, Ac-GAK-Ac-AMC (GAK) substrate 10 µM
# T3 construct: HDAC6 2-1215 Open Biosystems; Strep-FLAG-HALO (N); made in house; host or cells: HEK293/T17
# T3 sequence (Q9UBN7 2-1215): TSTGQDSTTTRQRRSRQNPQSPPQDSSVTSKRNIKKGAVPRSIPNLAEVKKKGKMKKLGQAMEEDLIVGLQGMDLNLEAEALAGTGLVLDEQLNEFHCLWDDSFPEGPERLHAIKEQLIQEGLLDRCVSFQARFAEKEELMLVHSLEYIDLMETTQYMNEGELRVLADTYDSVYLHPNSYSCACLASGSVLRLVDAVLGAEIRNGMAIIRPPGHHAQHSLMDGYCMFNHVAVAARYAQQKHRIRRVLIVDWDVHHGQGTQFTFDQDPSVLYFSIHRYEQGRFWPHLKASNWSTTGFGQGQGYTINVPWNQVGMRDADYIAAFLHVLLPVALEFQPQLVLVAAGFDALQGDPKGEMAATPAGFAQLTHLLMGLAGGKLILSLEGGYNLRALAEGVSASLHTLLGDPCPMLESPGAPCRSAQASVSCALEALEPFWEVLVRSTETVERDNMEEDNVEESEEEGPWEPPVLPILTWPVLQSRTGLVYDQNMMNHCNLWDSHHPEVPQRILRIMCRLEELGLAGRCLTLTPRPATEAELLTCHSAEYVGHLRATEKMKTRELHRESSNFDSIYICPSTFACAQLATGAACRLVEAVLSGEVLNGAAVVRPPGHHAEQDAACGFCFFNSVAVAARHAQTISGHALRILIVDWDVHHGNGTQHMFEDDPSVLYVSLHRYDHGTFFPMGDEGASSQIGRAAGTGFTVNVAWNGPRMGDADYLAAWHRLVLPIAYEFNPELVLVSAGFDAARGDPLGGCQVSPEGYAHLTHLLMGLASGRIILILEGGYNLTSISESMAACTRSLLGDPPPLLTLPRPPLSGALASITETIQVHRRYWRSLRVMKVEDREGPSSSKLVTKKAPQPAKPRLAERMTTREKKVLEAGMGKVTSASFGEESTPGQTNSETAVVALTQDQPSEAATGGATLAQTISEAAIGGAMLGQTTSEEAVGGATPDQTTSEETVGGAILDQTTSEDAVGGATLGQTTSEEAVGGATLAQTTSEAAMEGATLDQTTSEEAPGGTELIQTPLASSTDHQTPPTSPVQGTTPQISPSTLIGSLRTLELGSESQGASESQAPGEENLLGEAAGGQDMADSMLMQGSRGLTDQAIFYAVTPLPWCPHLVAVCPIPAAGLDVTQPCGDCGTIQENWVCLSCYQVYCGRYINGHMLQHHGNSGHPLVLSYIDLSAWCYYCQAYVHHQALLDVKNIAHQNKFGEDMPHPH
# [3] = Homo sapiens, RPMI-8226, 6 h, read-out: IC50 tubulin deacetylation (relative tubulin acetylation), RPMI-8226 cells, 6 h, Western blot; called EC50 in text
structure (smiles),measurement,setting,value
"O=C(CCCCCCNC(=O)c1cnc(N(c2ccccc2)c2ccccc2)nc1)NO [ACY-1215, rocilinostat]",IC50,HDAC10,18.2 nM
same,EC50 at 48 h,MTT viability assay,2890 nM
same,EC50,RPMI-8226 lymphoblasts,2900 nM
same,IC50,tubulin acetylation; [3],619 nM
same,"effect on histone H3 (K9/K14) acetylation, class I HDAC inhibition",histone H3 acetylation,the most potent class I HDAC inhibitors
"CCCCN(Cc1ccc(C(=O)NO)cc1)C(=O)Nc1ccccc1 [Next A, Nexturastat A]",EC50 at 48 h,MTT viability assay,2810 nM
same,EC50,RPMI-8226 lymphoblasts,2800 nM
same,IC50,tubulin acetylation; [3],249 nM
"CC(/C=C/C(=O)NO)=C\[C@@H](C)C(=O)c1ccc(N(C)C)cc1 [TSA, Trichostatin A]",EC50 at 48 h,MTT viability assay,237 nM
same,EC50,RPMI-8226 lymphoblasts,240 nM
same,IC50,"tubulin acetylation; Homo sapiens, RPMI-8226, 6 h, read-out: IC50 tubulin deacetylation (relative tubulin acetylation)",136 nM
same,IC50,"tubulin acetylation; Homo sapiens, RPMI-8226, 6 h, read-out: potency to inhibit tubulin deacetylation",136 nM
same,IC50,tubulin acetylation; read-out: IC50 tubulin deacetylation (relative tubulin acetylation),140 nM
same,"effect on histone H3 (K9/K14) acetylation, class I HDAC inhibition",histone H3 acetylation,the most potent class I HDAC inhibitors
"CN1CCc2c(c3ccccc3n2Cc2ccc(C(=O)NO)cc2)C1 [Tub A, Tubastatin A]",EC50 at 48 h,MTT viability assay,21600 nM
same,effect on cell viability,RPMI-8226 lymphoblasts; MTT,less pronounced effects on cell viability at high inhibitor concentrations
same,IC50,"tubulin acetylation; Homo sapiens, RPMI-8226, 6 h; read-out: IC50 tubulin deacetylation (relative tubulin acetylation)",985 nM
O=C(CCCCCCC(=O)Nc1ccc([C@H]2O[C@@H](CSc3nc(-c4ccccc4)c(-c4ccccc4)o3)C[C@@H](c3ccc(CO)cc3)O2)cc1)NO [Tubacin],EC50 at 48 h,MTT viability assay,6510 nM
same,EC50,RPMI-8226 lymphoblasts,6500 nM
same,IC50,HDAC1 [1],15100 nM
same,IC50,tubulin acetylation; [3],1710 nM
same,IC50,"tubulin acetylation; read-out: IC50 tubulin deacetylation (relative tubulin acetylation); RPMI-8226 cells, 6 h, Western blot; called EC50 in text",1700 nM
same,EC50,"HDAC1 [2]; Figure 2C, in vitro data (GAK) in μM",0.1 µM
same,IC50,HDAC1 [2],102 nM
same,EC50,HDAC1-nanoLuc,13200 nM
"CS(=O)(=O)N(Cc1ccc(C(=O)NO)cn1)c1cccc(Cl)c1 [compound 6, 6-((N-(3-Chlorophenyl)methylsulfonamido)methyl)-N-hydroxynicotinamide]",IC50,HDAC6,0.35 nM
same,IC50,"HDAC10; purified human HDAC10, read-out: IC50 HDAC10",68.3 nM
same,SI (HD6/HD10),HDAC10; ratio of IC50 HDAC10 divided by IC50 HDAC6,195
same,EC50 at 48 h,MTT viability assay,998 nM
same,IC50,HDAC1 [1],281 nM
same,SI (HD6/HD1) RHKK,HDAC1 [1]; ratio of IC50 HDAC1 (RHKK) divided by IC50 HDAC6,803
same,IC50,HDAC1 [2],49.2 nM
same,"SI (HD6/HD1) GAK, in vitro",HDAC1 [2]; ratio of IC50 HDAC1 (GAK) divided by IC50 HDAC6,141
